Article PMC9403987 (Frontiers in Oncology, 2022)

Legend:
[1] = design: method as in PMID 26149830, PMID 20354191; conditions: within 5 minutes after intravenous administration of 1 mg/kg; cited from earlier work
MCF-7 tumor cells = assay: Orthotopic MCF-7 breast cancer xenograft; type: in vivo, NOD/SCID mice; conditions: 25 mg/kg daily oral
Procedure: (§1) The efficacy of GLR2007 was evaluated in human GBM and breast cancer orthotopic cell-line-derived xenografts in NOD/SCID mice (Shanghai Lingchang Biotechnology Co. Ltd, Shanghai, China) and BALB/c nude mice (Shanghai Sino-British SIPPR/BK Laboratory Animal Co. Ltd, Shanghai, China), and human lung, colorectal, and liver cancer subcutaneous cell-line-derived xenografts in BALB/c nude mice (Nanjing University National Resource Center, Nanjing, China, or Beijing Anikeeper Biotech Co., Beijing, China). Mice were maintained in humidity- and temperature-controlled conditions with food and water available ad libitum.
In two breast cancer orthotopic xenograft models, female NOD/SCID mice were subcutaneously implanted with an estrogen pellet (17β-estradiol; Innovative Research of America, Sarasota, FL, USA) one day before tumor inoculation. Mice were inoculated at 6–7 weeks old with 2×10^7 MCF-7 tumor cells plus Matrigel in a 1:1 ratio in PBS at a mammary fat pad or in the right flank. Randomization was performed when the mean tumor volume reached 135–138 mm^3.

LI1088 = assay: Subcutaneous LI1088 liver cancer xenograft; type: in vivo, BALB/c nude mice; conditions: 25 mg/kg daily oral, 28 days, measured day 25
Procedure: as §1, with “libitum. For subcutaneous models, female BALB/c nude mice were inoculated at 4–8 weeks old with 3×10^6–1×10^7 tumor cells (see Table 1 for xenograft model cell types) in the right flank for tumor development. Randomization was performed when the mean tumor volume reached 118–171 mm^3.” for “libitum.”

NCI-H1975 = assay: Subcutaneous NCI-H1975 non-small cell lung cancer xenograft; type: in vivo, BALB/c nude mice; conditions: 25 mg/kg daily oral, 22 days, measured day 16
Procedure: as §1, with “libitum. For subcutaneous models, female BALB/c nude mice were inoculated at 4–8 weeks old with 3×10^6–1×10^7 tumor cells (see Table 1 for xenograft model cell types) in the right flank for tumor development. Randomization was performed when the mean tumor volume reached 118–171 mm^3.” for “libitum.”

BN2289 = assay: Subcutaneous BN2289 glioblastoma xenograft; type: in vivo, BALB/c nude mice; conditions: 25 mg/kg daily oral, 28 days, measured day 21
Procedure: as §1, with “libitum. For subcutaneous models, female BALB/c nude mice were inoculated at 4–8 weeks old with 3×10^6–1×10^7 tumor cells (see Table 1 for xenograft model cell types) in the right flank for tumor development. Randomization was performed when the mean tumor volume reached 118–171 mm^3.” for “libitum.”

COLO 205 = assay: Subcutaneous COLO 205 colorectal cancer xenograft; type: in vivo, BALB/c nude mice; conditions: 25 mg/kg daily oral, 26 days, measured day 25
Procedure: as §1, with “libitum. For subcutaneous models, female BALB/c nude mice were inoculated at 4–8 weeks old with 3×10^6–1×10^7 tumor cells (see Table 1 for xenograft model cell types) in the right flank for tumor development. Randomization was performed when the mean tumor volume reached 118–171 mm^3.” for “libitum.”

[2] = mouse, in vivo, po, 100 mg/kg; cited from earlier work

Structure (SMILES) | unbound brain-to-plasma partition coefficient (Kp,uu) [1] | TGI (%) (MCF-7 tumor cells; 21 days, measured day 21, 8 mice) | TGI (%) (MCF-7 tumor cells; 28 days, measured day 25, 10 mice) | TGI (%) (LI1088) | TGI (%) (NCI-H1975) | TGI (%) (BN2289) | TGI (%) (COLO 205) | Kp,uu [2]
CC(=O)c1c(C)c2cnc(Nc3ccc(N4CCNCC4)cn3)nc2n(C2CCCC2)c1=O [Palbociclib, palbociclib, reference compound] | 0.01 | 45.5 | 77.7 | 16.4 | 33.6 | 34.0 | 52.9 | 
CN(C)C(=O)c1cc2cnc(Nc3ccc(N4CCNCC4)cn3)nc2n1C1CCCC1 [ribociclib] |  |  |  |  |  |  |  | 0.105
